{"source": "ChEMBL document CHEMBL5385898", "about": "“Recent advances in nuclear receptor-binding SET domain 2 (NSD2) inhibitors: An update and perspectives” (Eur J Med Chem, 2023)", "key": {"[1]": {"test": "Inhibition of GST-tagged NSD3 (247 to 398 residues) (unknown origin) /PWWP1 (unknown origin) protein-protein interaction incubated for 60 mins by TR-FRET assay", "parameters": "species or system Homo sapiens"}, "[2]": {"biological_target": "T1, Histone-lysine N-methyltransferase NSD2 (Homo sapiens, UniProt O96028)", "T1 sequence (O96028 whole entry)": "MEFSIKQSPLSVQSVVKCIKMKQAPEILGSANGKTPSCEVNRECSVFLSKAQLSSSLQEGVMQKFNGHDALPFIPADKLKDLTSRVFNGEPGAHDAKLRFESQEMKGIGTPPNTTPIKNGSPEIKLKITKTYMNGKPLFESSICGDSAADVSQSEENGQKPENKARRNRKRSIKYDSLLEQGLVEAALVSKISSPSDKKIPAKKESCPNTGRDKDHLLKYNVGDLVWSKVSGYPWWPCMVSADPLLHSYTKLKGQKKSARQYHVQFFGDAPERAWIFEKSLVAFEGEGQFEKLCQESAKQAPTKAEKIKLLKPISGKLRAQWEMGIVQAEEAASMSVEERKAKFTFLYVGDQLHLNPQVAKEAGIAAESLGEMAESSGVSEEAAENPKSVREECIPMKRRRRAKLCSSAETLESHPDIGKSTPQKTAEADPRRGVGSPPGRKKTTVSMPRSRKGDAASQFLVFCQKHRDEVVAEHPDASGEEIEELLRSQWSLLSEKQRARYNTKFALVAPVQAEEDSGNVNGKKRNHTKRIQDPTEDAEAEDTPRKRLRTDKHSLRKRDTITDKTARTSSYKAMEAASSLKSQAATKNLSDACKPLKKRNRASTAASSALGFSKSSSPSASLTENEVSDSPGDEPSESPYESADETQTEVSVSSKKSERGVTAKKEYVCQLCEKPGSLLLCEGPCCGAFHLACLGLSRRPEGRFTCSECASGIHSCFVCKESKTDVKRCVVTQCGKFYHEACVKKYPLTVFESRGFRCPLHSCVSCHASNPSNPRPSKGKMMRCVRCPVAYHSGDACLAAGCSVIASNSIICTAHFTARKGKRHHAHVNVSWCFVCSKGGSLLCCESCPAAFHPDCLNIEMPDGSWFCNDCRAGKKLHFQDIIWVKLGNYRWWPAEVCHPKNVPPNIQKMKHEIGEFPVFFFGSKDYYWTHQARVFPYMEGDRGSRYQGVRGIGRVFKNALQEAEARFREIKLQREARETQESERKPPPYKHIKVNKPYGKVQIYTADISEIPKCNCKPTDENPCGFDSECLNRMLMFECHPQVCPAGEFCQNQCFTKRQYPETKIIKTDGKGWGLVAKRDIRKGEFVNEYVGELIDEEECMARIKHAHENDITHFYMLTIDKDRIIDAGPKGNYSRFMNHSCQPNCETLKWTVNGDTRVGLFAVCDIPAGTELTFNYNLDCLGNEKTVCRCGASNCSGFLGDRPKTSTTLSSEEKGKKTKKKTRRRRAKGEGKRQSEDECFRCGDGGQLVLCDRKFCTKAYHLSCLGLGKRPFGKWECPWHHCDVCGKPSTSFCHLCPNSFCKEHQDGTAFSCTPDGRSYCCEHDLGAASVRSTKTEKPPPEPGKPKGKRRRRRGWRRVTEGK", "test": "Inhibition of MMSET (unknown origin)"}, "[3]": {"biological_target": "T1, Histone-lysine N-methyltransferase NSD2", "test": "Inhibition of NSD2 (unknown origin)"}, "[4]": {"biological_target": "T1, Histone-lysine N-methyltransferase NSD2", "test": "Binding affinity to human biotinylated NSD2 (208 to 368 residues) expressed in Escherichia coli BL21(DE3) by SPR assay"}, "[5]": {"biological_target": "Histone-lysine N-methyltransferase, H3 lysine-36 specific (Homo sapiens, UniProt Q96L73)", "sequence (Q96L73 whole entry)": "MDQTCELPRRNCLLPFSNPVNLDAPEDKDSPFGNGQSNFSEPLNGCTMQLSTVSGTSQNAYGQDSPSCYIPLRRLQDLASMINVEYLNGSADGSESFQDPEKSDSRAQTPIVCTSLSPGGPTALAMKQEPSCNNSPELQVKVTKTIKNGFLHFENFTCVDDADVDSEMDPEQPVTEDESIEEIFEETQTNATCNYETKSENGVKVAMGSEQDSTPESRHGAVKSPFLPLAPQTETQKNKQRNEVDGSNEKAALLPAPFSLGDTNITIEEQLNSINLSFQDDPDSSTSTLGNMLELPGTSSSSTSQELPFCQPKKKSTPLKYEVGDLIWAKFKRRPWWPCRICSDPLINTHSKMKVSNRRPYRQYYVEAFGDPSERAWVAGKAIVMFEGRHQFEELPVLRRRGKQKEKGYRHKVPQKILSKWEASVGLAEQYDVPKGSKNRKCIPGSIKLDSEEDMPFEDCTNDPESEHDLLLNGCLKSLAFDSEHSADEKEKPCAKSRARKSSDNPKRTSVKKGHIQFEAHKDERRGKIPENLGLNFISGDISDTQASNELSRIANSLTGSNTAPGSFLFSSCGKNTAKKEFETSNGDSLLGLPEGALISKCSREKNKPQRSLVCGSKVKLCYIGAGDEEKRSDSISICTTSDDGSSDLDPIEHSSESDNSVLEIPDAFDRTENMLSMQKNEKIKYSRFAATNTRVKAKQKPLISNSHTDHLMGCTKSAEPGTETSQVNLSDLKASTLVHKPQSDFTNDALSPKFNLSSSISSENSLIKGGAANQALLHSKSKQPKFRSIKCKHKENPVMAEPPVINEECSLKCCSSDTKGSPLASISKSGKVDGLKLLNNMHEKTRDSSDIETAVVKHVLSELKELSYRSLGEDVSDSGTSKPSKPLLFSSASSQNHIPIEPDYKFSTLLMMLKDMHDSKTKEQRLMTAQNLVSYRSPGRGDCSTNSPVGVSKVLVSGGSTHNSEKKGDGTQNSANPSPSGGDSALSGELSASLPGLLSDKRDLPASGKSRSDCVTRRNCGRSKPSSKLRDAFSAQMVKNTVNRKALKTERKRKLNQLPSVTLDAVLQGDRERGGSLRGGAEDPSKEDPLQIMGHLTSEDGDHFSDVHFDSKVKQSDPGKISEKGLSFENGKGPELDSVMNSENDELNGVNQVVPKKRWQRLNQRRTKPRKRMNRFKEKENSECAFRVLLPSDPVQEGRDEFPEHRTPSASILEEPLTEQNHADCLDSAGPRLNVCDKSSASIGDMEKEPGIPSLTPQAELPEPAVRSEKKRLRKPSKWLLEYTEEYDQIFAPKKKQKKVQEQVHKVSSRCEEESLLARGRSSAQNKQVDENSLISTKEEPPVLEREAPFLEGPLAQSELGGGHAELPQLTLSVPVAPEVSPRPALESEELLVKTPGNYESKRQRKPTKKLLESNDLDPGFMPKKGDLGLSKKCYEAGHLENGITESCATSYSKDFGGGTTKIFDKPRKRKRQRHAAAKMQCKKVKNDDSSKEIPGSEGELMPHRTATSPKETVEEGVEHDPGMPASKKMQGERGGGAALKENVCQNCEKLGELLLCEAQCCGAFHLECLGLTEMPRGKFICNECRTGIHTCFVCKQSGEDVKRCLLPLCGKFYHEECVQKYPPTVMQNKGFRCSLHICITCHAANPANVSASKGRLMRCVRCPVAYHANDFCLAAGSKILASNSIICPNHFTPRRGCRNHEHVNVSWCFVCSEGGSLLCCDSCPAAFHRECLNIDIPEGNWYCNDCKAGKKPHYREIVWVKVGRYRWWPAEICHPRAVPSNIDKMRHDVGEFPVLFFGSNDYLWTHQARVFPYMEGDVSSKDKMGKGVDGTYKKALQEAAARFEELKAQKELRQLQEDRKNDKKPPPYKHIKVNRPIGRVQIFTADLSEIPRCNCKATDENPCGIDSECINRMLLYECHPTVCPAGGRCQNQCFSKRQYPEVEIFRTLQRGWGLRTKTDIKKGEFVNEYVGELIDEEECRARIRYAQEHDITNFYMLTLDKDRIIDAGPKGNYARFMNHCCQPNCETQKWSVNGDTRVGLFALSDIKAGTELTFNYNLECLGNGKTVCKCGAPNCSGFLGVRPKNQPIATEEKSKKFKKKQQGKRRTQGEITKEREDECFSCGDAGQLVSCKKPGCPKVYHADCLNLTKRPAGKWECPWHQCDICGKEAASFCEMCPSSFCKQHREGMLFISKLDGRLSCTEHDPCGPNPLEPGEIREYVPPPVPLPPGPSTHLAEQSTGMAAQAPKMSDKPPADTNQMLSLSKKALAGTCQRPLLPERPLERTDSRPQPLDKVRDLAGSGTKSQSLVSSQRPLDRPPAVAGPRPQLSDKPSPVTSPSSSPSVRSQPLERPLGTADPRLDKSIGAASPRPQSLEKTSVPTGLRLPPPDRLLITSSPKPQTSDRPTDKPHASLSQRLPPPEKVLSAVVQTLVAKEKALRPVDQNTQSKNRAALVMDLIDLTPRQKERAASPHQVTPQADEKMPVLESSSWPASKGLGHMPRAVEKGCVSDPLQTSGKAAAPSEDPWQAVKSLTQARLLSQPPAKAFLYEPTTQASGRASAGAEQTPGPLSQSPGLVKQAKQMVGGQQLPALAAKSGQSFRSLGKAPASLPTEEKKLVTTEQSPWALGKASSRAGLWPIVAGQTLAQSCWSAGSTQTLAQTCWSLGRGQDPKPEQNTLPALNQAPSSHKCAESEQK", "test": "Inhibition of NSD1 (unknown origin) using H3K36 as substrate"}, "[6]": {"biological_target": "T2, Histone-lysine N-methyltransferase NSD3 (Homo sapiens, UniProt Q9BZ95)", "T2 sequence (Q9BZ95 whole entry)": "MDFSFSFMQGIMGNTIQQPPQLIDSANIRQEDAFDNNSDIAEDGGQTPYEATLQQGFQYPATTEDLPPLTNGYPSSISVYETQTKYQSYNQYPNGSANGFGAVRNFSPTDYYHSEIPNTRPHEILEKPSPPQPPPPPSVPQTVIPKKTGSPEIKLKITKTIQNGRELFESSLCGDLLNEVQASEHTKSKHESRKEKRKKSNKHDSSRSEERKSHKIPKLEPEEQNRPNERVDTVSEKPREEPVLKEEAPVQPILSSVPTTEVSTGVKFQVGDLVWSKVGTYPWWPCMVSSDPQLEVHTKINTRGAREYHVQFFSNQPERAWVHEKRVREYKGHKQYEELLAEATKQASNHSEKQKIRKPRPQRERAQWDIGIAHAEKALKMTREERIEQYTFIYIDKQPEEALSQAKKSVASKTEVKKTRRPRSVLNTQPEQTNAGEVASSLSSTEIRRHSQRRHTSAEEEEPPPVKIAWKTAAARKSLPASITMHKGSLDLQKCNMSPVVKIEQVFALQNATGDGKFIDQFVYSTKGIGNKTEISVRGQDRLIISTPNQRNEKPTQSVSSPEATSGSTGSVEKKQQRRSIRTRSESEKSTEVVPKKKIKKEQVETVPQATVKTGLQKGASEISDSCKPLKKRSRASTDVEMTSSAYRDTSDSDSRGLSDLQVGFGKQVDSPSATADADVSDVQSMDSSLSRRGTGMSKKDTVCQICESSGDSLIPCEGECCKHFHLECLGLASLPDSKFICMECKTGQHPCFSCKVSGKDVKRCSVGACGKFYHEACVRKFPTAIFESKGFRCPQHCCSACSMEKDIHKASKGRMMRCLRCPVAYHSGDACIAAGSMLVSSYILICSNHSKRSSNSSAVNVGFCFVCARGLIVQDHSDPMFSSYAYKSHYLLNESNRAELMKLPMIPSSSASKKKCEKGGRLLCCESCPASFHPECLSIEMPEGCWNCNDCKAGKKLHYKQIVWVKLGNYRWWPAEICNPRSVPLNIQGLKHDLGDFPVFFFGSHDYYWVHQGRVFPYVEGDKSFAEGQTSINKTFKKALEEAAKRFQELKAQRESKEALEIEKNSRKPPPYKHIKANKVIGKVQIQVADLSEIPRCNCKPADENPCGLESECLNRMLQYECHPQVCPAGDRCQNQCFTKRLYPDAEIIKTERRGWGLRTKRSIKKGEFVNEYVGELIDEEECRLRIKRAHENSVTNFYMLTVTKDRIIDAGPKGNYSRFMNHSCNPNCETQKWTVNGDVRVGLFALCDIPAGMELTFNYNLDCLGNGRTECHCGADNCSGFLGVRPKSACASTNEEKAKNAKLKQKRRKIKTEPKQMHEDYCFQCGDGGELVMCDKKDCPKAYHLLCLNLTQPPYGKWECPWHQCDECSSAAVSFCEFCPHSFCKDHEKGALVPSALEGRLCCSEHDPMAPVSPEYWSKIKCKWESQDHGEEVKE", "test": "Inhibition of NSD3 (unknown origin) using H3K36 as substrate"}, "[7]": {"biological_target": "T1, Histone-lysine N-methyltransferase NSD2", "test": "Inhibition of NSD2 (unknown origin) using H3K36 as substrate"}, "[8]": {"biological_target": "T1, Histone-lysine N-methyltransferase NSD2", "test": "Inhibition of NSD2 in human KMS-11-Par cells assessed as reduction in H3K36me2 level incubated for 72 hrs by ELISA", "assay_type": "cell-based"}, "[9]": {"biological_target": "T1, Histone-lysine N-methyltransferase NSD2", "test": "Inhibition of NSD2 in human CGTH-W-1 cells assessed as reduction in H3K36me2 level incubated for 72 hrs by ELISA", "assay_type": "cell-based"}, "SK-OV-3": {"test_system": "SK-OV-3", "test": "Antiproliferative activity against human SK-OV-3 cells", "assay_type": "functional, cell-based"}, "MDA-MB-231": {"test_system": "MDA-MB-231", "test": "Antiproliferative activity against human MDA-MB-231 cells", "assay_type": "functional, cell-based"}, "PC-3": {"test_system": "PC-3", "test": "Antiproliferative activity against human PC-3 cells", "assay_type": "functional, cell-based"}, "NCI-H2228": {"test_system": "NCI-H2228", "test": "Antiproliferative activity against human NCI-H2228 cells", "assay_type": "functional, cell-based"}, "[10]": {"biological_target": "T1, Histone-lysine N-methyltransferase NSD2", "test": "Inhibition of 15N-labeled NSD2 (953 to 1240 residues) (unknown origin) expressed in Escherichia coli BL21 DE3 using H3K36 as substrate incubated for 60 mins by Alphascreen assay"}}, "note": "pIC50, pKd: −log10 of the molar value.", "data": [{"smiles": "Cc1cc(CN)cc(C)c1-c1ncn(C)c1-c1ccnc2cc(F)ccc12", "values": [{"measurement": "pIC50", "setting": "[1]", "value": 6.69}]}, {"smiles": "NNc1nc2ccccc2nc1S", "values": [{"measurement": "pIC50", "setting": "[2]", "value": "> 5.52"}]}, {"smiles": "N#Cc1cccc(NC(=O)Nc2ccc3nnsc3c2)c1", "values": [{"measurement": "pIC50", "setting": "[3]", "value": 5.12}]}, {"smiles": "O=C1COc2cc(C(=O)N(Cc3cccs3)C3CC3)ccc2N1", "values": [{"measurement": "pKd", "setting": "[4]", "value": 6.46}]}, {"smiles": "C=CC(=O)Nc1cc(NC(=O)Nc2ccc3nnsc3c2)cc(C(=O)OC)c1", "values": [{"measurement": "pIC50", "setting": "[3]", "value": 5.09}]}, {"smiles": "O=C(NCCCN(Cc1nc2sc3c(c2c(=O)[nH]1)CCCC3)Cc1nc2sc3c(c2c(=O)[nH]1)CCCC3)c1cc2ccccc2c(=O)o1", "values": [{"measurement": "pIC50", "setting": "[5]", "value": 3.38}, {"measurement": "pIC50", "setting": "[6]", "value": 4.22}, {"measurement": "pIC50", "setting": "[7]", "value": 3.95}]}, {"smiles": "O=C(Nc1cccc([N+](=O)[O-])c1)Nc1ccc2nnsc2c1", "values": [{"measurement": "pIC50", "setting": "[3]", "value": 5.32}]}, {"smiles": "CC(=O)c1ccc(-c2cc(NC(=O)Nc3ccc4nnsc4c3)cc(C(F)(F)F)c2)s1", "values": [{"measurement": "pIC50", "setting": "[3]", "value": 5.14}]}, {"smiles": "Nc1ncnc2c1ncn2Cc1cc(-c2ccc(F)c(F)c2)ncc1N1CCC[C@](N)(c2ccccn2)C1", "values": [{"measurement": "pIC50", "setting": "[8]", "value": 7.39}, {"measurement": "pIC50", "setting": "[9]", "value": 7.74}]}, {"smiles": "COC(=O)c1cc(NC(=O)Nc2ccc3nnsc3c2)cc(C(=O)OC)c1", "values": [{"measurement": "pIC50", "setting": "SK-OV-3", "value": 5.59}, {"measurement": "pIC50", "setting": "MDA-MB-231", "value": 5.29}, {"measurement": "pIC50", "setting": "PC-3", "value": 5.38}, {"measurement": "pIC50", "setting": "NCI-H2228", "value": 5.17}, {"measurement": "pIC50", "setting": "[3]", "value": 5.43}]}, {"smiles": "CC(C)N(Cc1ccc(C(=O)Nc2ccncn2)cc1)C(=O)c1ccc2c(c1)OCC(=O)N2", "values": [{"measurement": "pKd", "setting": "[4]", "value": "< 4.70"}]}, {"smiles": "Cn1nnc2ccc(NC(=O)Nc3cccc([N+](=O)[O-])c3)cc21", "values": [{"measurement": "pIC50", "setting": "[3]", "value": 5.08}]}, {"smiles": "CC[C@H](C)C(=O)[C@@]1(N)CCCN(c2cnc(-c3ccc(F)c(F)c3)cc2Cn2cnc3c(N)ncnc32)C1", "values": [{"measurement": "pIC50", "setting": "[8]", "value": 7.47}, {"measurement": "pIC50", "setting": "[9]", "value": 7.40}]}, {"smiles": "CNC(=O)[C@@]1(N)CCCN(c2cnc(-c3cccc(F)c3)cc2Cn2cnc3c(N)ncnc32)C1", "values": [{"measurement": "pIC50", "setting": "[8]", "value": 7.11}, {"measurement": "pIC50", "setting": "[9]", "value": 7.92}]}, {"smiles": "CC(C)CN[C@@H](CC[C@H](N)C(=O)O)C[C@H]1O[C@@H](n2cnc3c(N)ncnc32)[C@H](O)[C@@H]1O", "values": [{"measurement": "pIC50", "setting": "[10]", "value": 5.74}]}, {"smiles": "Nc1ncnc2c1ncn2[C@@H]1O[C@H](C[C@@H](N)CC[C@H](N)C(=O)O)[C@@H](O)[C@H]1O", "note": "[SINEFUNGIN]", "values": [{"measurement": "pIC50", "setting": "[10]", "value": 4.34}]}]}
